Patent publication US5529989A (Arizona Board of Regents acting on behalf of Arizona State …, priority 1995, dated 1996)
In brackets after ≈: the same amount, converted by molar mass. Entries after “also recorded” stand apart in the source; their conditions may differ.

Assays:
[1] = tested on: M5074 murine ovary sarcoma; conditions: 0.38 to 3.0 mg active reagent/kg host body weight; from U.S. Pat. No. 4,985,436; cited from earlier work
[2] = tested on: U.S. National Cancer Institute's (NCI) panel of sixty human cancer cell lines; assay: cancer cell growth inhibition, NCI panel of sixty human cancer cell lines; type: cell-based
Experimental: (§1) There is no mathematical difference between ED50 and GI50, which are both calculated using the same formula. The only difference is historical usage.
Total Growth Inhibition ("TGI"), is the drug dose needed to yield zero percent growth, i.e., just as many cells at the end of the experiment as were present in the beginning. Whether just as many cells were killed as were produced (steady state), or no growth occurred (total inhibition), cannot be distinguished.
(§2) Each drug is tested at five (5) doses: 100--10--1--0.1--0.01 μg/ml. Percent Growths are calculated for each dose. […] The log of the dose is used during the regression computation.
(§3) At the start of an experiment, cells from the in vitro cell cultures are inoculated into the appropriate tubes or microtiter plates. One set of control tubes/plates is immediately counted to determine the number of cells at the start of the experiment. This is the "baseline count" or "Tzero reading". At the end of the experiment (48 hours later) a second set of control tubes/plates is analyzed to determine the "Control Growth" value. The growth (or death) of cells relative to the initial quantity of cells is used to define the "Percent of Growth".

RNA viruses = conditions: cited from earlier work
[3] = tested on: murine P388 lymphocytic leukemia cell line; conditions: from U.S. Pat. No. 4,985,436, cited from earlier work
[4] = cited from earlier work
[5] = tested on: M5074 murine ovary sarcoma; conditions: 6 mg/kg host body weight; from U.S. Pat. No. 4,985,436; cited from earlier work
[6] = tested on: murine P388 lymphocytic leukemia; conditions: 0.75-12.5 mg/kg host body weight, from U.S. Pat. No. 4,985,436; cited from earlier work
[7] = tested on: experimental melanoma and ovary carcinoma; conditions: cited from earlier work
[8] = stability of the phosphoric acid; type: physicochemical; conditions: isolated after hydrogenolysis
cancer cell = cancer cell growth inhibitory comparison of pancratistatin with its phosphate prodrug; type: cell-based; conditions: versus pancratistatin (1)
Experimental: as §1, §2, §3

water solubility = type: physicochemical
[9] = tested on: murine P388 lymphocytic leukemia cell line; assay: growth inhibition of murine P388 lymphocytic leukemia cell line in vitro; type: cell-based
Experimental: as §1, §2, §3

Structure (SMILES) | life extension [1] | direct comparison of phosphate (5) and pancratistatin (1) [2] | activity against a range of RNA viruses (RNA viruses) | ED50 ([3]; P388 in vitro cell line, 2880 min) [ng/mL] | inhibition of growth of P388 in vitro cell line (in words) [3] | solubility in water (in words) [4] | cure rate [5] [%] | life extension [6] | activity against experimental melanoma and ovary carcinoma [7] | stability [8] | cancer cell growth inhibition compared with pancratistatin (1) (cancer cell) | solubility (water solubility) [mg/mL] | GI50 ([9]; Mus musculus, 48 h, murine P388 lymphocytic leukemia cell line, dose needed to reduce the percent growth to 50%, read-out: ED50 (the source's name)) [µg/mL] | ED50 compared with pancratistatin (1) ([9]; murine P388 lymphocytic leukemia, versus pancratistatin (1))
O=C1N[C@H]2[C@H](O)[C@H](O)[C@@H](O)[C@H](O)[C@@H]2c2cc3c(c(O)c21)OCO3 [pancratistatin] | 53% to 84 | comparable results for both compounds | activity against a range of RNA viruses | 1 (≈ 3.07 nM) | markedly inhibited growth | at best sparingly soluble in water | 50 | 38-106% | potent activity | – | – | – | – | –
CC(=O)O[C@@H]1[C@@H](OC(C)=O)[C@H](OC(C)=O)[C@@H]2c3cc4c(c(OP(=O)(O)O)c3C(=O)N[C@H]2[C@@H]1OC(C)=O)OCO4 [4b, 7-phosphoryl-pancratistatin tetraacetate] | – | – | – | – | – | – | – | – | – | unstable | – | – | – | –
O=C1N[C@H]2[C@H](O)[C@H](O)[C@@H](O)[C@H](O)[C@@H]2c2cc3c(c(OP(=O)(O)O)c21)OCO3 [compound (5), Disodium 7-Phosphoryl-Pancratistatin] | – | comparable results for both compounds | – | – | – | – | – | – | – | – | same cancer cell growth inhibition as pancratistatin (1); also recorded: very comparable results | > 230 | 0.032 | essentially comparable to that found for pancratistatin (1)
